What was measured:
[1] = test system: Romaine lettuce (Lactuca sativa L.) plants; assay: Post-emergency herbicidal activity on Romaine lettuce plants; assay type: in vivo; conditions: Romaine lettuce at stage 2 to 3 leaves; compound in 0.1% Silwet, up to 0.5%; visual evaluation vs control plants
In short: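 Plants at the 2 to 3 leaf stage were treated with compound in 0.1% aqueous Silwet at 0.0% (Control) to 0.5%, with 20 to 40 plants per test. Vigor, height and leaf color were scored 0 (dead) to 100 (healthy) at 7, 14 and 21 DAA, and aboveground wet weight was measured.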

[2] = test system: Amaranthus blitoides (Pigweed); assay: Herbicidal activity on development of weeds and crops (pot test); assay type: in vivo; conditions: 32 days after application, 0 = dead, 100% = healthy
Experimental: (§1) The experiment included 225 pots. Weed seeds were sawn in 0.3-liter pots, containing medium-heavy clay-loam soil from Newe Ya'ar Research Center organic fields (55% clay, 23% silt, 20% sand, 2% organic matter, pH 7.1). The experiment was conducted in a completely randomized design. Each treatment was replicated 5 times (5 pots). The herbicides were applied at 200 L/ha with a motorized sprayer equipped with a Tee Jet 8001E nozzle (Spraying Systems Co., North Ave., Wheaton, Ill. 60188, USA) and operated at a pressure of 300 kPa. The pots were transferred to a glasshouse 24 hours after herbicide application and were sprinkler irrigated to field capacity of the soil. The plants were grown in the glasshouse during the entire experiment. Plant development at 6, 12, 19, 26 and 32 days after application (DAA) were evaluated on a scale of 0 to 100%, in which 0 represents dead plants and 100% represents healthy plants according to plant vigor, height, and leaf color.
(§2) Phalaris minor (Cannarygrass); Setaria verticillata (Bristlegrass); Solanum nigrum (Black nightshade) Sinapis arvensis (Mustard); Silybum marianum (Thistle); Chenopodium album (Lambsquarter); Amaranthus (Pigweed); Fodder corn; Avena sativa (Cultured oats.
(§3) Plant development was evaluated on a scale of 0 to 100%, in which 0 represents dead plants and 100% represents healthy plants according to plant vigor, height, and leaf color.

[3] = test system: Avena sativa (Cultured oats); assay: as above; assay type: in vivo; conditions: Avena sativa (crop); 32 days after application; 0 = dead, 100% = healthy
Experimental: as §1, §2, §3

[4] = test system: Chenopodium album (Lambsquarter); assay: as above; assay type: in vivo; conditions: 32 days after application, 0 = dead, 100% = healthy
Experimental: as §1, §2, §3

Fodder Corn = assay: as above; assay type: in vivo; conditions: Fodder corn (crop); 32 days after application; 0 = dead, 100% = healthy
Experimental: as §1, §2, §3

[5] = test system: Phalaris minor (Cannarygrass); assay: as above; assay type: in vivo; conditions: 32 days after application, 0 = dead, 100% = healthy
Experimental: as §1, §2, §3

[6] = test system: Setaria verticillata (Bristlegrass); assay: as above; assay type: in vivo; conditions: 32 days after application, 0 = dead, 100% = healthy
Experimental: as §1, §2, §3

[7] = test system: Sinapis arvensis (Mustard); assay: as above; assay type: in vivo; conditions: 32 days after application, 0 = dead, 100% = healthy
Experimental: as §1, §2, §3

[8] = test system: Solanum nigrum (Black nightshade); assay: as above; assay type: in vivo; conditions: 32 days after application, 0 = dead, 100% = healthy
Experimental: as §1, §2, §3

Marianum (Thistle) = assay: as above; assay type: in vivo, Silybum marianum; conditions: 32 days after application, 0 = dead, 100% = healthy
Experimental: as §1, §2, §3

[9] = test system: Seeds of Lettuce R. (Super-Jericho); assay: Filter paper bioassay with lettuce seeds (germination and early plant development); assay type: in vivo; conditions: lettuce seeds on filter paper; 1, 0.1, 0.01, 0.001 mM; radicle and shoots assessed after 6 days
In short: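 Lettuce seeds (10 per plate) were placed on filter paper with 2.0 ml water or test material at 1, 0.1, 0.01 or 0.001 mM. Plates were kept dark for 48 h, then grown 4 days at 22° C under a 6/18 dark/light cycle. At day 6, radicle and shoot development was scored visually; MEC is the lowest concentration causing deviation from control.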

NC(Cc1cc(Cl)sc1Cl)C(=O)O (stereo not drawn) [Code 517, 2-amino-3-(2,5-dichlorothiophen-3-yl)propanoic acid]
post-emergency herbicidal activity (Activity Index: plant's development vs Control) [1]: Maximal (Less than 15) | Plants' Development (% of Control group) following treatment with NCHAAs [2]: 10% | Plants' Development (% of Control group) following treatment with NCHAAs [3]: 100% | Plants' Development (% of Control group) following treatment with NCHAAs [4]: 10% | Plants' Development (% of Control group) following treatment with NCHAAs (Fodder Corn): 90% | Plants' Development (% of Control group) following treatment with NCHAAs [5]: 60% | Plants' Development (% of Control group) following treatment with NCHAAs [6]: 100% | Plants' Development (% of Control group) following treatment with NCHAAs [7]: 0% | Plants' Development (% of Control group) following treatment with NCHAAs [8]: 15% | Plants' Development (% of Control group) following treatment with NCHAAs (Marianum (Thistle)): 35% | Minimal Effective Concentration (MEC) as activity score, seeds germination & early plants development [9]: Maximal (0.01 mM and less)

NC(Cc1ccnc(Br)c1)C(=O)O (stereo not drawn) [Code 632, 2-amino-3-(2-bromopyridin-4-yl)propanoic acid]
post-emergency herbicidal activity (Activity Index: plant's development vs Control) [1]: Maximal (Less than 15) | Plants' Development (% of Control group) following treatment with NCHAAs [2]: 100% | Plants' Development (% of Control group) following treatment with NCHAAs [3]: 100% | Plants' Development (% of Control group) following treatment with NCHAAs [4]: 20% | Plants' Development (% of Control group) following treatment with NCHAAs (Fodder Corn): 100% | Plants' Development (% of Control group) following treatment with NCHAAs [5]: 10% | Plants' Development (% of Control group) following treatment with NCHAAs [6]: 20% | Plants' Development (% of Control group) following treatment with NCHAAs [7]: 80% | Plants' Development (% of Control group) following treatment with NCHAAs [8]: 25% | Plants' Development (% of Control group) following treatment with NCHAAs (Marianum (Thistle)): 15% | Minimal Effective Concentration (MEC) as activity score, seeds germination & early plants development [9]: Strong (0.1 mM)

COCCOCCOC(=O)C(N)Cc1ccc(Br)nc1 (stereo not drawn) [Code 674]
post-emergency herbicidal activity (Activity Index: plant's development vs Control) [1]: Moderate (From 50 to 75) | Minimal Effective Concentration (MEC) as activity score, seeds germination & early plants development [9]: Strong (0.1 mM)

CCOCCOCCOC(=O)C(N)Cc1ccc(Br)nc1 (stereo not drawn) [Code 675]
post-emergency herbicidal activity (Activity Index: plant's development vs Control) [1]: Moderate (From 50 to 75) | Minimal Effective Concentration (MEC) as activity score, seeds germination & early plants development [9]: Strong (0.1 mM)

C[n+]1cncc(CC(N)C(=O)O)c1 (stereo not drawn) [Code 676]
post-emergency herbicidal activity (Activity Index: plant's development vs Control) [1]: Very Strong (From 15 to 25) | Minimal Effective Concentration (MEC) as activity score, seeds germination & early plants development [9]: Moderate (1 mM)

Cl.NC(Cc1ccnc(C(F)(F)F)c1)C(=O)O (stereo not drawn) [Code 679]
post-emergency herbicidal activity (Activity Index: plant's development vs Control) [1]: Strong (From 25 to 50) | Minimal Effective Concentration (MEC) as activity score, seeds germination & early plants development [9]: Strong (0.1 mM)

NC(CCc1cc[nH]c1)C(=O)O (stereo not drawn) [Code 702]
post-emergency herbicidal activity (Activity Index: plant's development vs Control) [1]: Weak (More than 75) | Minimal Effective Concentration (MEC) as activity score, seeds germination & early plants development [9]: Weak (More than 1 mM)

NC(Cc1ccc[nH]1)C(=O)O (stereo not drawn) [Code 703]
post-emergency herbicidal activity (Activity Index: plant's development vs Control) [1]: Weak (More than 75) | Minimal Effective Concentration (MEC) as activity score, seeds germination & early plants development [9]: Weak (More than 1 mM)

NC(Cc1cc[nH]c1)C(=O)O (stereo not drawn) [Code 704]
post-emergency herbicidal activity (Activity Index: plant's development vs Control) [1]: Weak (More than 75) | Minimal Effective Concentration (MEC) as activity score, seeds germination & early plants development [9]: Weak (More than 1 mM)

NC(Cc1nnc[nH]1)C(=O)O (stereo not drawn) [Code 709]
post-emergency herbicidal activity (Activity Index: plant's development vs Control) [1]: Maximal (Less than 15) | Minimal Effective Concentration (MEC) as activity score, seeds germination & early plants development [9]: Moderate (1 mM)

O=C(O)[C@@H](O)Cc1c[nH]cn1 [Code 710]
post-emergency herbicidal activity (Activity Index: plant's development vs Control) [1]: Weak (More than 75) | Minimal Effective Concentration (MEC) as activity score, seeds germination & early plants development [9]: Weak (More than 1 mM)

CCOC(=O)C(Cc1nc[nH]n1)NC(=O)OCc1ccccc1 (stereo not drawn) [Code 714]
post-emergency herbicidal activity (Activity Index: plant's development vs Control) [1]: Weak (More than 75) | Minimal Effective Concentration (MEC) as activity score, seeds germination & early plants development [9]: Moderate (1 mM)
